Each block holds one compound with its values, some of them ahead of it. Square brackets hold non-standard residues; d marks the D form. Peptide text beside a SMILES is read from it. * marks the point of attachment. Sta = CC(C)C[C@H](N)[C@@H](O)CC(=O)O; Isovaleryl = CC(C)CC(=O)*
Assays:
[1] = test system: carrageenan-induced inflammation of the rat knee joint; experiment: Anti-hyperalgesic action in animals (carrageenan injected intraarticularly into rat knee joint, Hargreaves test); format: in vivo; conditions: intraarticular 30 minutes before CAR
Method: In order to induce an inflammation reaction, a carrageenan solution (CAR, 1%, 50 μl) was injected intraarticularly on one side into a rat knee joint. The uninjected side was used for control purposes. Six animals per group were used. The […] was determined by means of a micrometer screw (medial-lateral on the knee joint), and the thermal hyperalgesia was determined by means of a directed infrared light source by the Hargreaves method (Hargreaves et al. 1988) on the sole of the foot. Since the site of inflammation (knee joint) is different from the site of measurement (sole of the paw), use is made here of the term secondary thermal hyperalgesia, the mechanisms of which is of importance for the discovery of effective analgesics.
Experimental description of thermal hyperalgesia (Hargreaves test): the experimental animal is placed in a plastic chamber on a quartz sheet. Before testing, the experimental animal is firstly given about 5-15 minutes time to familiarise itself with the environment. […] Light reflected by the paw is recorded as long as the experimental animal sits still. Withdrawal of the paw interrupts this reflection, after which the infrared light source is switched off and the time from switching on to switching off is recorded. […]

[2] = pooled synovial fluid of patients, Powell et al. Table II; cited from earlier work
[3] = Stability of pepstatin in bovine synovial fluid; format: in vitro ADME; conditions: pooled bovine synovial fluid, 37° C., initial 1 μM
Method: In order to check the stability of individual compounds, a pool of 4 different bovine synovial fluids is mixed. To this end, about 1 ml per SF are used. The mixture is prepared directly in a 5 ml glass vessel in order to minimise any absorption effects. The SFs are mixed thoroughly, but carefully. No air bubbles or foam should form. To this end, a vortex unit is used at the lowest speed. The compounds to be tested are tested in an initial concentration (unless requested otherwise) of 1 μM. After addition of the substance, the batch is again mixed thoroughly and carefully. For visual monitoring, all SF batches are photographed, and the pictures are filed in the eLabBio file for the corresponding experiment. The batches are incubated in the incubator for 48 h at 37° C. and 7.5% CO2.
The sampling is carried out after the pre-agreed times (unless requested otherwise, see below). 4×200 μl of the SF are removed from the mixture at each point in time and transferred directly into 0.5 ml “low-binding” Eppendorf vessels. […]
The samples are stored in “low-binding” Eppendorf vessels at −20° C. The samples are subsequently measured quantitatively. […]
The concentrations measured (ng/ml) are plotted against time in a graph (Graph Pad Prism®). The percentage stability of the substance is determined here. […]

[4] = Toxicity and genotoxicity
[5] = test system: cartilage explant cultures; conditions: pH 5.5, explant cultures (mouse, cow or human); cited from earlier work
[6] = biological target: T1, cathepsin D isolated from the human liver (Homo sapiens, UniProt P07339); experiment: In-vitro fluorescence assay for identification of cathepsin D inhibitors; format: biochemical; conditions: pH 5.5
T1 construct: cathepsin D isolated from the human liver (Sigma-Aldrich); purchased Sigma-Aldrich; host or cells: human liver (tissue-derived)
Method: In order to identify modulators of cathepsin D activity, a continuous enzymatic test was carried out with a synthetic peptide which carries a fluorescent group (MCA=(7-methoxycoumarin-4-yl)acetyl) which is quenched by energy transfer from a Dpn (2,4 dinitrophenyl) group on the same molecule, in Greiner 384-well nb microtitre plates. Cleavage of the peptidic substrate by cathepsin D causes an increase in the fluorescence intensity. In order to determine the efficacy of substances, the time-dependent increase in the fluorescence intensity in the presence of the substance was compared with the time-dependent increase in fluorescence in the absence of substances. […] The enzyme employed was cathepsin D isolated from the human liver (Sigma-Aldrich) in a final concentration of 1.4 nM. The test was carried out in 100 mM sodium acetate buffer, 1.25% (v/v) of DMSO, 0.25% (w/v) of Chaps, pH 5.5. […] After carrying out a starting-point fluorescence measurement (excitation wavelength 340 nm/emission wavelength 450 nm) using an Envision multilabel reader (Perkin Elmer), the reaction was incubated at room temperature for 60 min. The amount of peptide fragment cleaved off during the reaction time was subsequently measured by determination of the increase in the fluorescence intensity at 450 nm (excitation wavelength 340 nm).

ACLT tMx arthrosis model = experiment: Efficacy in vivo in arthrosis, ACLT tMx model; design: species or system rats; conditions: rat ACLT tMx, 1 mg in 30 μl intraarticular, 6 weeks, histological assessment
Method: Rats were selected as experimental animals. After shaving and disinfection, the operation area is opened by means of a medial skin cut with a length of about 1 cm. The knee joint capsule is prepared and the medial patellar ligament is exposed. After opening of the joint capsule, cutting of the medial parapatellar ligaments and lateral displacement of the patella, the anterior cruciate ligament is cut using a curved knife with a blunt end (ACLT=anterior cruciate ligament transection). The anterior and posterior ligaments holding the meniscus in place are subsequently prepared and cut and the meniscus is removed tMx (resection of the medial meniscus). After repositioning of the patella, the joint is finally rinsed with sterile saline solution in order to remove any blood coagulum that may have formed. The patella is repositioned, and the medial patellar ligament is re-fixed by means of continuous suture with sealing of the capsule. The muscles are likewise sutured. The skin is subsequently closed by means of single stitches. The operation duration is about 10 minutes. The postoperative trial duration was 6 weeks. For intraarticular injection, the animals are anaesthetised with 1.5-2% by vol. of isoflurane. […] Two sections in the region of the exposure zone were selected from each animal and assessed by two experienced people using an assessment system. […]

[7] = Pharmacokinetic data after intravenous and oral administration; format: in vivo, Wistar rats; conditions: Wistar rat
Method: The test substances were dissolved in DMSO/PEG200/water (2/60/38 v/v) with a final concentration of 0.8 mg/ml, and a dose of 0.2 mg/kg i.v. and 0.5 mg/kg orally was administered. […] The blood samples were collected in centrifuge tubes containing Li heparin and centrifuged at about 10,000 g at 4° C. for 3 min. The plasma obtained therefrom was immediately frozen at −20° C. and stored until analysis. The plasma concentrations were determined by means of a standard LC-MS/MS method. The pharmacokinetic parameters (Clp, Vss, T1/2, F) were determined via an NCA analysis.

[8] = Pharmacokinetic data after intraarticular injection; format: in vivo, Lister hooded rats; conditions: for Average joint diameter [mm]: rat knee, about 700 μg suspension intraarticular
Method: For this study (KK-Rat-12-003), 14 male Lister hooded rats were used. All rats were given a single intraarticular injection into both knee joints at time “0”. An injection consisted of 30 μl in which about 700 μg of compound were homogeneously suspended (suspension=compound in 0.5% Methocel K4M with 0.25% Tween20 in PBS). The suspension was administered via a 25 G cannula. […] At each point in time indicated in Table 2, animals were sacrificed, the knee joints were prepared (removal of skin and muscle tissue) and frozen for further processing.
The deep-frozen joints were briefly thawed, comminuted as well as possible using bone scissors, and 4 times the volume of 80% ethanol was subsequently added. The mixture was subsequently homogenised using an Ultraturrax, the extract was shaken at RT for 20 min and then stored at −20° C. for at least 30 min. The mixture was then centrifuged at 13,000 rpm for 5 min, a 10 μl aliquot of the supernatant was diluted 1:5000 with internal standard solution, transferred into a PCR plate and analysed.
20 μl of internal standard solution were added to 20 μl of plasma, 100 μl of methanol were added, and the mixture was shaken for 5 min. The extracts were then stored at −20° C. for at least 30 min and subsequently centrifuged at 13,000 rpm for 5 min. 80 μl of the supernatant were transferred into a PCR plate and analysed.
All samples were analysed with the aid of a UPLC-MS/MS system.

[9] = In vitro microdialysis in bovine synovial fluid; format: in vitro ADME; conditions: 3 mg per ml, 6 kDa membrane
Excerpt: Since the synovial fluid on the one hand represents a complex matrix for the analytical determination of peptides and on the other hand only the free, i.e. non-protein-bound medicament fraction is relevant for the action, the microdialysis method was employed. The eluate obtained from the microdialysis enables analysis of free medicament levels from the complex matrix of the synovial fluid. The reason for this is that a barrier membrane (microdialysis membrane) which only molecules up to a certain size is able to pass through is employed. This “pore size” determines the concentration of the medicament in the eluate besides the flow rate of the eluate and the free concentration of medicament present in the synovial fluid as driving force for material exchange.
(§1) For these investigations, microdialysis probes from CMA (reference number 000082; CMA 7; microdialysis sample 1 mm 3/pkg) fitted with a cuprophane membrane and having a pore size of 6 kDa were used. The eluate flow rate was 0.5 μl/min.
Firstly, release kinetics in bovine synovial fluid were investigated and compared with triamcinolone (Triam Injekt® 20 mg)—a medicament approved for intraarticular injection. […] 3 mg of medicament per ml of synovial fluid were employed in a glass vessel, which corresponds approximately to the concentration conditions after intraarticular injection into the knee joint.

Cartilage penetration = format: in vitro ADME
[10] = In vivo joint microdialysis in guinea pig knee joint; design: species or system guinea pigs (Dunkin Hartley); conditions: 1 mg/joint in 50 μl as suspension, microdialysis eluates
Method: as §1

T1 sequence (P07339 65-161 limits assumed): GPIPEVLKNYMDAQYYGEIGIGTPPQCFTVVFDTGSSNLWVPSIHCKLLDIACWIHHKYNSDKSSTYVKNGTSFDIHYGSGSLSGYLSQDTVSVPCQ
T1 sequence (P07339 169-412 limits assumed): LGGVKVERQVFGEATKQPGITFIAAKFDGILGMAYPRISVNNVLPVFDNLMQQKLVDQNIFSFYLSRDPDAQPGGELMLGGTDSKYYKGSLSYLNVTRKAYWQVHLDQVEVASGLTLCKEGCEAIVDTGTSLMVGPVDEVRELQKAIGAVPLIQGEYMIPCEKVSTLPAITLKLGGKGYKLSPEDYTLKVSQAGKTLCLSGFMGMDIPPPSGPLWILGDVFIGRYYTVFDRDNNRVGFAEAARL

Compound: C[C@]12C=CC(=O)C=C1CC[C@H]1[C@@H]3C[C@@H](O)[C@](O)(C(=O)CO)[C@@]3(C)C[C@H](O)[C@@]12F [TAC, Triamcinolone, reference compound]
reduction of CAR-induced swelling ([1]; rat knee joint, TAC 10 μg/joint): capable of reducing

Compound: pertussis toxin
half life in synovial fluid [2]: barely two days

period of stability in synovial fluid [3]: at least two weeks
inhibition of cathepsin D (in words) [6]: nanomolar range
plasma concentrations after oral administration ([7]; 0.5 mg/kg orally): below the detection limit
clearance ([7]; i.v. 0.2 mg/kg): > 100 % liver blood flow
distribution volume ([7]; i.v. 0.2 mg/kg): average
half-life ([7]; male, plasma, iv, i.v. 0.2 mg/kg): ~8.4 min
Average joint diameter [mm] ([8]; 0 days after injection): 10.08 mm
Average joint diameter [mm] ([8]; 1 day after injection): 10.88 mm
Average joint diameter [mm] ([8]; 2 days after injection): 10.50 mm
Average joint diameter [mm] ([8]; 4 days after injection): 10.12 mm
Average joint diameter [mm] ([8]; 7 days after injection): 10.35 mm
Average joint diameter [mm] ([8]; 9 days after injection): 10.14 mm
Average joint diameter [mm] ([8]; 11 days after injection): 10.37 mm
Average joint diameter [mm] ([8]; 13 days after injection): 10.24 mm
Average joint diameter [mm] ([8]; 15 days after injection): 10.45 mm
Average joint diameter [mm] ([8]; 20 days after injection): 10.18 mm
Average joint diameter [mm] ([8]; 27 days after injection): 10.50 mm
systemic exposure ([8]; rat, intraarticular administration of a suspension): very low
time after administration up to which detectable in the plasma ([8]; rat, intraarticular suspension, very low concentration): up to 28 days
levels of unbound medicament in microdialysis eluate [9]: very high levels
cartilage penetration (Cartilage penetration): good
time after intraarticular injection up to which significant levels are detectable in the joint [10]: up to 14 days
Compound: CC(C)CC(=O)N[C@H](C(=O)N[C@H](C(=O)N[C@@H](CC(C)C)[C@@H](O)CC(=O)N[C@@H](C)C(=O)N[C@@H](CC(C)C)[C@@H](O)CC(=O)O)C(C)C)C(C)C [Pepstatin, (3S,4S)-3-hydroxy-4-[(S)-2-((3S,4S)-3-hydroxy-6-methyl-4-{(S)-3-methyl-2-[(S)-3-methyl-2-(3-methyl-butyrylamino)butyrylamino]butyrylamino}heptanoylamino)-propionylamino]-6-methylheptanoic acid] (Isovaleryl-VV[Sta]A[Sta]-OH)
toxicity or genotoxicity [4]: no measurable toxicity or genotoxicity
inhibition of autodigestion of the cartilage [5]: inhibited virtually completely
efficacy in vivo in arthrosis (ACLT tMx arthrosis model): significant efficacy
changes of in-life parameters (body weight, knee swelling, relieving postures) ([8]; rat, single intraarticular injection of about 700 μg suspension into both knee joints): No peculiarities
reduction of thermal hyperalgesia ([1]; rat, Hargreaves test): able to reduce the extent of thermal hyperalgesia as a function of the dose

Compound: CC(C)c1nc(CN(C)C(=O)N[C@H](C(=O)N[C@@H](Cc2ccccc2)C[C@H](O)[C@H](Cc2ccccc2)NC(=O)OCc2cncs2)C(C)C)cs1 [ritonavir, reference compound]
inhibition of autodigestion of the cartilage [5]: inhibited virtually completely

— patent US9750784B2 (priority 2013, dated 2017)
